According to US20100048705A1, “METHODS OF TREATING AND PREVENTING NEOVASCULARIZATION WITH OMEGA-3 POLYUNSATURATED FATTY ACIDS” (CHILDREN'S MEDICAL CENTER CORPORATION, priority 2006, published 2010):
Entries after “also recorded” stand apart in the source; their conditions may differ.

What was measured:
[1] = system: mice with oxygen-induced retinopathy; assay: Oxygen-induced retinopathy model: vaso-obliteration and retinal neovascularization at P17; type: in vivo, mouse; conditions: for decrease in vessel loss (VO) compared to vehicle control / decrease in neovascularization (Tufts) compared to vehicle-treated mice: 10 ng i.p. daily P6-P17, read at P17; for decrease in vessel loss (VO) compared to vehicle control / protection from vaso-obliteration compared to saline-injected controls: FIG. 7a; for decrease in neovascularization (Tufts) compared to vehicle-treated mice / neovascularization at P17 compared to saline controls: FIG. 7b; for neovascularization at P17 compared to saline controls / protection from vaso-obliteration compared to saline-injected controls: 10 ng/day i.p. P6-P17
Excerpt: Retinopathy is modeled in the mouse eye with oxygen-induced vessel loss which precipitates hypoxia-induced retinopathy^1. One-week-old C57BL/6J mice are exposed to 75% oxygen for 5 days and then to room air. A fluorescein-dextran perfusion method is used to assess the vascular pattern. The proliferative neovascular response is quantified by counting the nuclei of new vessels extending from the retina into the vitreous in 6 microns sagittal cross-sections. Cross-sections are also stained for glial fibrillary acidic protein (GFAP). Fluorescein-dextran angiography delineates the entire vascular pattern, including neovascular tufts in flat-mounted retinas. Hyperoxia-induced neovascularization occurs at the junction between the vascularized and avascular retina in the mid-periphery. Retinal neovascularization occurs in all the pups between postnatal day 17 and postnatal day 21. This serves as a reproducible and quantifiable mouse model of oxygen-induced retinal neovascularization for the study of pathogenesis of retinal neovascularization as well as for the study of medical intervention for ROP and other retinal angiopathies in humans. This model allows assessment of retinal vessel loss, vessel re-growth after injury and pathological angiogenesis^1.
Litters of mice were subjected to the oxygen induced retinopathy model. Briefly, mice (pups with mothers) on normal chow were placed in 75% oxygen at postnatal day 7, and kept at 75% oxygen for five days. Mice were then returned to room air. During this room air phase (P12-P17) the retina becomes hypoxic due to the vessel regression that occurred while mice were in hyperoxia. Here mice were given either an omega-3 or omega-6 LCPUFA diet. At p12 (once out of oxygen, after vessel loss) or at P15 (a few days later as retinopathy was setting in).
Animals. These studies adhered to the ARVO Statement for the Use of Animals in Ophthalmic and Vision Research. Fat-1 transgenic mice contain a humanized fat-1 cDNA driven by the cytomegalovirus enhancer and a chicken β-actin promoter^9. Fat-1 and control dams were fed a defined diet with elevated omega-6 polyunsaturated fatty acids. For diet studies C57Bl/6 mothers at delivery (unless otherwise indicated for FIG. 12) were fed a defined rodent diet with 10% (w/w) safflower oil containing 2% omega-6 polyunsaturated fatty acids (AA) and no omega-3 polyunsaturated fatty acids or the same defined diet except for 2% omega-3 polyunsaturated fatty acids (DHA and EPA) and no omega-6 polyunsaturated fatty acids (AA). (Table 1) Diets were stable over time and with oxygen exposure (Table 2), unless otherwise indicated.
(§1) O2-induced retinopathy (vessel degeneration, re-growth and pathological neovascularization). To induce vessel loss, postnatal day 7 (P7) mice with their nursing mother were exposed to 75% oxygen for times ranging from 24 hours to 5 days^1. To evaluate vaso-obliteration following 24 hours of oxygen exposure, P8 mice were anesthetized at with Avertin (Sigma) and perfused with 50 μl of 120 mg/ml FITC-dextran (2×10^6 molecular weight, FD2000S-5G, Sigma) in saline through the left ventricle^21. Eyes were enucleated and fixed in 4% paraformaldehyde for 2 h at 4° C. Retinas were isolated and whole-mounted with SlowFade Antifade reagent (S2828, Molecular Probes) onto polylysin-coated slides with the photoreceptor side up. Retinas were examined with a fluorescence microscope (Olympus, Tokyo), digitized images using a three-charge-coupled device color video camera (DX-950P, Sony), and processed with NORTHERN ECLIPSE software (Empix Imaging, Toronto). Retinal neovascularization was evaluated 5 days after oxygen exposure (P7-P12) at P17 when the neovascular response is greatest. P17 mice were given a lethal dose of Avertin (Sigma) and their eyes were enucleated and fixed in 4% paraformaldehyde for 2 h at 4° C. […]

[2] = system: mice exposed to 75% oxygen; assay: Oxygen-induced vessel loss (vaso-obliteration) at P8 after 24 hours of 75% oxygen; type: in vivo, mouse; conditions: 10 ng i.p. P5-P8; FIG. 7c
Method: as §1, with “greatest.” for “greatest. P17 mice were given a lethal dose of Avertin (Sigma) and their eyes were enucleated and fixed in 4% paraformaldehyde for 2 h at 4° C.”
Quantification of vaso-obliteration and retinal neovascularization. […] Vaso-obliteration and neovascular tuft formation were quantified by comparing the number of pixels in the affected areas with the total number of pixels in the retina. […]
Resolvins and Neurorotectins. […] Retinas collected at P17 from omega-6 or omega-3 polyunsaturated fatty acid fed dams and exposed to high oxygen or room air conditions were analyzed to determine lipid mediator profiles. Polyunsaturated fatty acid derived products were extracted, identified, and quantified using a deuterium-labelled internal standard and MS-MS based mediator informatics^23. […] Following retinal staining and whole-mounting, neovascularization and vaso-obliteration were quantified at P17. Vaso-obliteration was also assessed at P8 (after 24 hours of 75% oxygen exposure) in pups given 10 ng of RvD1 (n=7), RvE1 (n=9), NPD1 (n=7), or saline/EtOH vehicle injections (n=6) i.p. from P5-P8. […]

TNF-α = conditions: literature refs 14, 15, 16; cited from earlier work

| Compound | vaso-obliteration versus fellow saline-injected eye ([1]; intraocular (intravitreous) 12.5 μg at P12, omega-6 fed mice, P17, FIG. 11a) | retinal neovascularization versus fellow saline-injected eye ([1]; intraocular (intravitreous) 12.5 μg at P12, omega-6 fed mice, P17, FIG. 11b) | vaso-obliteration (vessel loss) versus saline injected controls ([1]; intraperitoneal, 500 μg/mouse at P7, P12, P14, P16, omega-6 fed mice, P17, FIG. 10a) | pathologic neovascularization versus saline injected controls ([1]; intraperitoneal, 500 μg/mouse at P7, P12, P14, P16, omega-6 fed mice, P17, FIG. 10b) | oxygen-induced vessel loss at P8 versus saline-injected control [2] | decrease in vessel loss (VO) compared to vehicle control [1] [%] | decrease in neovascularization (Tufts) compared to vehicle-treated mice [1] [%] | neovascularization at P17 compared to saline controls [1] | protection from vaso-obliteration compared to saline-injected controls ([1]; P17) | TNF-α mRNA expression levels in inflammatory models (TNF-α) |
| --- | --- | --- | --- | --- | --- | --- | --- | --- | --- | --- |
| etanercept [reference compound] | significantly reduce | suppressed; also recorded: significantly improved | significantly protected; also recorded: significant reduction | significantly protected; also recorded: significant reduction | – | – | – | – | – | – |
| CC/C=C\C[C@H](O)\C=C/C=C/C=C/[C@H](O)C/C=C\C/C=C\CCC(=O)O [NPD1, 10R,17S dihydroxy-docosa-4Z,7Z,11E,13E,15Z,19z-hexaneoic acid] | – | – | – | – | No apparent differences; also recorded: no protective action | 40 | 30 | less neovascularization | significant protection | significantly reduce |
| CC/C=C\C[C@H](O)/C=C/C=C\C=C\C=C\[C@@H](O)[C@@H](O)C/C=C\CCC(=O)O [RvD1, 7S,8R,17S-trihydroxy-docosa-4Z,9E,11E,13Z,15E,19Z-hexaenoic acid] | – | – | – | – | No apparent differences | 40 | 30 | less neovascularization | significant protection | significantly reduce |
| CC[C@@H](O)/C=C/C=C\C[C@@H](O)/C=C/C=C/C=C\[C@@H](O)CCCC(=O)O [RvE1, 5S,12R,18R-trihydroxy-6Z,8E,10E,14Z,16E-eicosapentaenoic acid] | – | – | – | – | No apparent differences; also recorded: no protective action | 40 | 30 | less neovascularization | significant protection | significantly reduce |
